Experimental data as given in PMC6917776, “Discovery of a chemical probe for PRDM9” (Nature Communications, 2019).
Read-outs that look alike come from different tables or passages of the source.

Assay: CelltiterGlo viability cell assay
Format: cell-based
Settings: human
Summary of the method: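 Luminescent ATP-based viability (CelltiterGlo) was measured after 3 or 6 days of treatment at increasing concentrations from 0.01 μM up to 30 μM, with values expressed relative to DMSO-treated cells.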

[1] = MDA-MB-436 breast cancer cells, MDA MB436, 3 day, read-out: viability Replicate 2
[2] = MDA-MB-436 breast cancer cells, MDA MB436, 3 day, read-out: viability Replicate 3
[3] = MDA-MB-436 breast cancer cells, MDA MB436, 3 day, read-out: viability Average
[4] = MDA-MB-436 breast cancer cells, MDA MB436, 3 day, read-out: viability Replicate 1
[5] = MDA-MB-436 breast cancer cells, MDA MB436, 6 day, read-out: viability Average
[6] = MDA-MB-436 breast cancer cells, MDA MB436, 6 day, read-out: viability Replicate 1
[7] = MDA-MB-436 breast cancer cells, MDA MB436, 6 day, read-out: viability Replicate 2
[8] = MDA-MB-436 breast cancer cells, MDA MB436, 6 day, read-out: viability Replicate 3
[9] = MDA-MB-436 cells, MDA MB436, 3 day, read-out: viability Replicate 1
[10] = MDA-MB-436 cells, MDA MB436, 3 day, read-out: viability Replicate 2
[11] = RPMI-8226 cells (multiple myeloma line), 8226, 3 day, read-out: viability Average
[12] = RPMI-8226 cells (multiple myeloma line), 8226, 3 day, read-out: viability Replicate 1
[13] = RPMI-8226 cells (multiple myeloma line), 8226, 3 day, read-out: viability Replicate 2
[14] = RPMI-8226 cells (multiple myeloma line), 8226, 3 day, read-out: viability Replicate 3
[15] = RPMI-8226 cells (multiple myeloma line), 8226, 6 day, read-out: viability Average
[16] = RPMI-8226 cells (multiple myeloma line), 8226, 6 day, read-out: viability Replicate 1
[17] = RPMI-8226 cells (multiple myeloma line), 8226, 6 day, read-out: viability Replicate 2
[18] = RPMI-8226 cells (multiple myeloma line), 8226, 6 day, read-out: viability Replicate 3
[19] = RPMI-8226 cells, 8226, 3 day, read-out: viability Average
[20] = RPMI-8226 cells, 8226, 3 day, read-out: viability Replicate 1
[21] = RPMI-8226 cells, 8226, 3 day, read-out: viability Replicate 2
[22] = RPMI-8226 cells, 8226, 3 day, read-out: viability Replicate 3
[23] = RPMI-8226 multiple myeloma cells, 8226, 3 day, read-out: viability Average

COc1cc(OC)cc(-c2noc(N3CCN(C)C4(CCN(c5ccnc(C)c5)CC4)C3)n2)c1 [MRK-740]
viability at 3 day, 0.01 µM [1]: 98.8% | viability at 3 day, 0.01 µM [2]: 92% | viability at 3 day, 0.03 µM [3]: 105% | viability at 3 day, 0.03 µM [4]: 124% | viability at 3 day, 0.03 µM [1]: 99.1% | viability at 3 day, 0.03 µM [2]: 92% | viability at 3 day, 0.3 µM [3]: 94.8% | viability at 3 day, 0.3 µM [2]: 92.8% | viability at 3 day, 1 µM [3]: 104% | viability at 3 day, 1 µM [4]: 114% | viability at 3 day, 1 µM [1]: 105% | viability at 3 day, 1 µM [2]: 93.4% | viability at 3 day, 3 µM [3]: 104% | viability at 3 day, 3 µM [4]: 120% | viability at 3 day, 3 µM [1]: 100% | viability at 3 day, 3 µM [2]: 91.2% | viability at 3 day, 9.5 µM [3]: 94.9% | viability at 3 day, 9.5 µM [4]: 108% | viability at 3 day, 9.5 µM [1]: 89.3% | viability at 3 day, 9.5 µM [2]: 87.6% | viability at 3 day, 30 µM [3]: 51.5% | viability at 3 day, 30 µM [4]: 60.8% | viability at 3 day, 30 µM [1]: 50% | viability at 3 day, 30 µM [2]: 43.6% | viability at 6 day, 0.01 µM [5]: 103% | viability at 6 day, 0.01 µM [6]: 97.8% | viability at 6 day, 0.01 µM [7]: 106% | viability at 6 day, 0.01 µM [8]: 107% | viability at 6 day, 0.03 µM [5]: 102% | viability at 6 day, 0.03 µM [6]: 99.8% | viability at 6 day, 0.03 µM [7]: 100% | viability at 6 day, 0.03 µM [8]: 106% | viability at 6 day, 0.1 µM [5]: 104% | viability at 6 day, 0.1 µM [6]: 105% | viability at 6 day, 0.1 µM [7]: 101% | viability at 6 day, 0.1 µM [8]: 106% | viability at 6 day, 0.3 µM [5]: 107% | viability at 6 day, 0.3 µM [6]: 108% | viability at 6 day, 0.3 µM [7]: 105% | viability at 6 day, 0.3 µM [8]: 109% | viability at 6 day, 1 µM [5]: 112% | viability at 6 day, 1 µM [6]: 109% | viability at 6 day, 1 µM [7]: 116% | viability at 6 day, 1 µM [8]: 111% | viability at 6 day, 3 µM [5]: 113% | viability at 6 day, 3 µM [6]: 115% | viability at 6 day, 3 µM [7]: 112% | viability at 6 day, 3 µM [8]: 112% | viability at 6 day, 9.5 µM [5]: 70.8% | viability at 6 day, 9.5 µM [6]: 69.6% | viability at 6 day, 9.5 µM [7]: 71% | viability at 6 day, 9.5 µM [8]: 71.9% | viability at 6 day, 30 µM [5]: 35.6% | viability at 6 day, 30 µM [6]: 34.7% | viability at 6 day, 30 µM [7]: 35.7% | viability at 6 day, 30 µM [8]: 36.5% | viability at 3 day, 0.1 µM (MDA-MB-436 cells, MDA MB436, 3 day, read-out: viability Average): 105% | viability at 3 day, 0.1 µM [9]: 123% | viability at 3 day, 0.1 µM [10]: 102% | viability at 3 day, 0.1 µM (MDA-MB-436 cells, MDA MB436, 3 day, read-out: viability Replicate 3): 90.1% | viability at 3 day, 0.3 µM [9]: 91.5% | viability at 3 day, 0.3 µM [10]: 100% | viability at 3 day, 9.5 µM [11]: 98.3% | viability at 3 day, 9.5 µM [12]: 105% | viability at 3 day, 9.5 µM [13]: 96.6% | viability at 3 day, 9.5 µM [14]: 93.4% | viability at 3 day, 30 µM [11]: 54.9% | viability at 3 day, 30 µM [12]: 74.2% | viability at 3 day, 30 µM [13]: 34.5% | viability at 3 day, 30 µM [14]: 56% | viability at 6 day, 0.01 µM [15]: 102% | viability at 6 day, 0.01 µM [16]: 101% | viability at 6 day, 0.01 µM [17]: 102% | viability at 6 day, 0.01 µM [18]: 102% | viability at 6 day, 0.03 µM [15]: 101% | viability at 6 day, 0.03 µM [16]: 100% | viability at 6 day, 0.03 µM [17]: 101% | viability at 6 day, 0.03 µM [18]: 102% | viability at 6 day, 0.1 µM [15]: 100% | viability at 6 day, 0.1 µM [16]: 96.9% | viability at 6 day, 0.1 µM [17]: 102% | viability at 6 day, 0.1 µM [18]: 102% | viability at 3 day, 0.01 µM [19]: 98.4% | viability at 3 day, 0.01 µM [20]: 97.7% | viability at 3 day, 0.01 µM [21]: 100% | viability at 3 day, 0.01 µM [22]: 97.6% | viability at 3 day, 0.03 µM [19]: 99.5% | viability at 3 day, 0.03 µM [20]: 97.9% | viability at 3 day, 0.03 µM [21]: 100% | viability at 3 day, 0.03 µM [22]: 100% | viability at 3 day, 0.1 µM [23]: 101% | viability at 3 day, 0.1 µM (RPMI-8226 multiple myeloma cells, 8226, 3 day, read-out: viability Replicate 1): 99.2% | viability at 3 day, 0.1 µM (RPMI-8226 multiple myeloma cells, 8226, 3 day, read-out: viability Replicate 2): 101% | viability at 3 day, 0.1 µM (RPMI-8226 multiple myeloma cells, 8226, 3 day, read-out: viability Replicate 3): 103% | viability at 3 day, 0.3 µM [23]: 102%
